From US20040023806A1 (priority 1999, published 2004) come the findings set out here.

The test system of data set [1] is Cercospora arachidicola. Description: Residual protective activity against Cercospora arachidicola in peanuts. The class given is in vivo. Particulars: peanut plants sprayed with 0.02% active substance, infected 48 hours later, evaluated 12 days after infection (number and size of leaf spots). As to the method:
Peanut plants 10 to 15 cm high are sprayed to runoff with an aqueous spray liquor (0.02% active substance) prepared from a wettable powder of the active substance and 48 hours later are infected with a conidia suspension of the fungus. The plants are incubated at 21° C. and high atmospheric humidity for 72 hours and then placed in a greenhouse until the typical leaf spots appear. The activity of the active substance is evaluated 12 days after infection, on the basis of the number and size of leaf spots.

Data set [2] concerns Venturia inaequalis. Description: Residual protective activity against Venturia inaequalis in apples. Particulars: apple seedlings sprayed with 0.02% active substance, infected 24 hours later, assessed 12 days after infection. In kind it is in vivo. As to the method: Apple seedlings with fresh shoots 10 to 20 cm long are sprayed to runoff with an aqueous spray liquor (0.02% active substance) prepared from a wettable powder of the active substance and 24 hours later are infected with a conidia suspension of the fungus. The plants are incubated at from 90 to 100 percent relative atmospheric humidity for 5 days and placed in a greenhouse at from 20 to 24° C. for […]. Fungal infestation is assessed 12 days after infection.

For data set [3], the system named is Phytophthora infestans. In kind it is in vivo. The note with it: tomato plants sprayed with 0.02% active substance, infected 24 hours later, assessed 5 days after infection.
Data set [4] relates to Aphis craccivora. Description: Activity against Aphis craccivora. In kind it is in vivo. Particulars: pea seedlings, spray liquor 100 ppm active substance, 20° C., 3 and 6 days later. As to the method: Pea seedlings are infected with Aphis craccivora and sprayed with a spray liquor containing 100 ppm active substance and incubated at 20° C. 3 and 6 days later, the percentage reduction in the population (% activity) is determined by comparing the number of dead aphids on the treated and untreated plants.

Each structure is given as a SMILES string.

What is called melting point is the temperature of the solid-liquid transition. The molecule `CO/N=C(/C(C)=N/OCc1ccccc1NC(=O)OC)c1ccc(F)cc1` registered a melting point of 143 to 144 °C.

For `CO/N=C(C)/C(C)=N/OCc1ccccc1NC(=O)OC` [Compound 1 from table b, Methyl [2-(2-(E)-methoxyimino-1-methyl-(E)-propylideneaminooxymethyl)phenyl]carbamate], the melting point lay in the range of 96.5 to 97.5 °C.

Regarding `CCN(C(=O)OC)c1ccccc1CO/N=C(C)/C(C)=N/OC` [Compound 7 from table b, Methyl N-ethyl-[2-(2-(E)-methoxyimino-1-methyl-(E)-propylideneaminooxymethyl)phenyl]carbamate], the melting point was 101 to 102 °C. For the same molecule, the activity entry in data set [1] is “more than 80%”.

Consider `CCO/N=C(/C(C)=N/N=C/c1ccccc1N(C)C(=O)OC)c1ccc(Oc2ccc(C(F)(F)F)cc2)cc1` [Compound 1 from table a, Methyl N-methyl-[2-({2-ethoxyimino-1-methyl-2-[4-(4-trifluoromethylphenoxy)phenyl]ethylidene}hydrazonomethyl)phenyl]carbamate], for which the activity result in data set [2] and in data set [3] was “more than 80%” throughout.

`CCON=C(C(C)=NN=Cc1ccccc1N(COC)C(=O)OC)c1ccc(Oc2ccc(C(F)(F)F)cc2)cc1` [Compound 5 from table a, methyl N-methoxymethyl-[2-({2-ethoxyimino-1-methyl-2-[4-(4-trifluoromethylphenoxy)phenyl]ethylidene}hydrazonomethyl)phenyl]carbamate]: the “kill rate (% activity, reduction in population)” value in data set [4] is on record as “more than 80%”.
